Experimental data reported in US20080170993A1, “THYMIDINE ANALOGS FOR IMAGING” (priority 2006, published 2008).

Target: T1, recombinant thymidine kinase 1 (TK-1) (Homo sapiens, UniProt P04183)
T1 sequence (P04183 1-234): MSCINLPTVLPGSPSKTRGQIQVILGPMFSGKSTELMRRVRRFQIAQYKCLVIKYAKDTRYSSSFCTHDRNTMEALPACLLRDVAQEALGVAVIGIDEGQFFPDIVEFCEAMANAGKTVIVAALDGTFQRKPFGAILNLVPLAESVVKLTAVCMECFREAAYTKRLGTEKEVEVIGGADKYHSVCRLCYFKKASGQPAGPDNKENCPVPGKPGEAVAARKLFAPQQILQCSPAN
Settings: cold 19F analogues; 100 μM ATP+P-32-ATP, 10-60 ng thymidine kinase; TLC, phosphoimager; thymidine 100%

Row | SMILES | In vitro-Phosphorylation
1 | Cc1cn([C@H]2C[C@H](O)[C@@H](CO)S2)c(=O)[nH]c1=O | 70% ± 9.3%
2 | Cc1cn([C@H]2C[C@H](O)[C@@H](CO)O2)c(=O)n(CCCCNC(=O)c2ccc(F)c(C#N)c2)c1=O [TD-9] | 21% ± 4.6%
3 | Cc1cn([C@H]2C[C@H](O)[C@@H](CO)O2)c(=O)n(CCNC(=O)CNC(=O)C(CF)NS(=O)(=O)c2c(C(C)C)cc(C(C)C)cc2C(C)C)c1=O (some centres unmarked) | 19% ± 3.7%
4 | Cc1cn([C@H]2C[C@H](O)[C@@H](CO)O2)c(=O)n(CCCCF)c1=O [TD-1] | 13% ± 5.4%
5 | Cc1cn([C@H]2C[C@H](O)[C@@H](CO)S2)c(=O)n(CCCCCCF)c1=O | 26% ± 4.0%
6 | Cc1cn([C@H]2C[C@H](O)[C@@H](CO)O2)c(=O)n(CCCCCCNC(=O)CNC(=O)C(CF)NS(=O)(=O)c2c(C(C)C)cc(C(C)C)cc2C(C)C)c1=O (some centres unmarked) | 17% ± 10.2%
7 | Cc1cn([C@H]2C[C@H](O)[C@@H](CO)O2)c(=O)n(Cc2ccc(F)cc2)c1=O | 34% ± 18.6%
8 | N#Cc1cc(C(=O)NCCCCCCn2c(=O)c(C(F)(F)F)cn([C@H]3C[C@H](O)[C@@H](CO)O3)c2=O)ccc1F | 49% ± 9.9%
9 | Cc1cn([C@H]2C[C@H](O)[C@@H](CO)O2)c(=O)n(CCCNC(=O)c2ccc(F)c(C(F)(F)F)c2)c1=O | 12% ± 1.1%
10 | Cc1cn([C@H]2C[C@H](O)[C@@H](CO)O2)c(=O)n(CC#CCF)c1=O | 23% ± 8.0%
11 | Cc1cn([C@H]2C[C@H](O)[C@@H](CO)O2)c(=O)n(CCCNC(=O)Cc2ccc([Si](F)(C(C)C)C(C)C)cc2)c1=O | 17% ± 1.5%
12 | Cc1cn([C@H]2C[C@H](O)[C@@H](CO)O2)c(=O)n(CCCCCCCNC(=O)c2ccc(F)c(C#N)c2)c1=O | 36% ± 6.5%
13 | Cc1cn([C@H]2C[C@H](F)[C@@H](CO)O2)c(=O)[nH]c1=O [FLT, 3′-[F-18]fluoro-3′-deoxythymidine, reference compound] | 58% ± 11.9%
14 | Cc1cn([C@H]2C[C@H](O)[C@@H](CO)O2)c(=O)n(CCCCN(C)C(=O)c2ccc(F)c(C#N)c2)c1=O | 12% ± 2.8%
15 | Cc1cn([C@H]2C[C@H](O)[C@@H](CO)O2)c(=O)n(CCCCCCF)c1=O [TD-2] | 30% ± 3.7%
16 | Cc1cn([C@H]2C[C@H](O)[C@@H](CO)O2)c(=O)n(CCCCCCNC(=O)c2ccc(F)c(C#N)c2)c1=O [TD-8] | 41% ± 9.5%
17 | Cc1cn([C@H]2C[C@H](O)[C@@H](CO)O2)c(=O)n(CCCNC(=O)CCc2cccc([Si](F)(C(C)C)C(C)C)c2)c1=O | 15% ± 6.1%
